biological target: Beta-3 Adrenergic Receptor (Homo sapiens (Human), UniProt P13945); assay: Homogeneous Time-Resolved Fluorescence (HTRF) cAMP antagonist assay, IC50 determination; assay type: cell-based; settings: CHO-K1 cells stably expressing recombinant receptor, isoproterenol at EC90
In short: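 CHO-K1 cells stably expressing the recombinant receptor were preincubated with compound (10-point, 5-fold dilutions; top final typically 10 or 100 μM) in PBS with 1 mM IBMX, then stimulated with isoproterenol at its EC90 for 1 h at room temperature. cAMP was read by HTRF against an on-plate standard curve.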

Beta-3 Adrenergic Receptor, sequence (P13945 whole entry, species assumed): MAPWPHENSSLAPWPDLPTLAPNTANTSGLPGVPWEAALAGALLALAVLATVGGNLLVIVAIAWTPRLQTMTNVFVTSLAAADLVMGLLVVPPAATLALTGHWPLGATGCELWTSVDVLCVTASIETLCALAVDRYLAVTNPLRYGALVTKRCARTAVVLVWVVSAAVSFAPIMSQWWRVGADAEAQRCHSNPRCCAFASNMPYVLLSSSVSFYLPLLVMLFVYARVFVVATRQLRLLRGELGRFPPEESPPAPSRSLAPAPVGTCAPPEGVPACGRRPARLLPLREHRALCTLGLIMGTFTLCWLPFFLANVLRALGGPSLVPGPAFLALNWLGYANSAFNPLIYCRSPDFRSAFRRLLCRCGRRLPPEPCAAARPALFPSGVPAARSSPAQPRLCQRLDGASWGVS

Structure (SMILES)	IC50 [nM]
CNS(=O)(=O)c1cccc(OC[C@@H](O)CN[C@H]2COC3(CCN(S(=O)(=O)c4ccc(OC)c(-c5ccc(C6(N)CC6)cc5)c4)CC3)C2)c1 [Compound 464, 3-((S)-3-((R)-8-(4′-(1-aminocyclopropyl)-6-methoxybiphenyl-3-ylsulfonyl)-1-oxa-8-azaspiro[4.5]decan-3-ylamino)-2-hydroxypropoxy)-N-methylbenzenesulfonamide]	13.9
CNS(=O)(=O)c1cccc(OC[C@@H](O)CNC2COC3(CCN(S(=O)(=O)c4cc(-c5ccc(CN)cc5)ccc4Cl)CC3)C2)c1 (stereo partly drawn) [Compound 377, 3-((2S)-3-(8-(4′-(aminomethyl)-4-chlorobiphenyl-3-ylsulfonyl)-1-oxa-8-azaspiro[4.5]decan-3-ylamino)-2-hydroxypropoxy)-N-methylbenzenesulfonamide]	18.9
CNS(=O)(=O)c1cccc(OC[C@@H](O)CNC2COC3(CCN(S(=O)(=O)c4cccc(-c5ccc(CNCCOC)cc5)c4)CC3)C2)c1 (stereo partly drawn) [Compound 340, 3-((2S)-2-hydroxy-3-(8-(4′-((2-methoxyethylamino)methyl)biphenyl-3-ylsulfonyl)-1-oxa-8-azaspiro[4.5]decan-3-ylamino)propoxy)-N-methylbenzenesulfonamide]	30.9
CNS(=O)(=O)c1cccc(OC[C@@H](O)CNC2COC3(CCN(S(=O)(=O)c4cccc(CN)c4)CC3)C2)c1 (stereo partly drawn) [Compound 389, 3-((2S)-3-(8-(3-(aminomethyl)phenylsulfonyl)-1-oxa-8-azaspiro[4.5]decan-3-ylamino)-2-hydroxypropoxy)-N-methylbenzenesulfonamide]	475
CNS(=O)(=O)c1cccc(OC[C@@H](O)CNC2COC3(CCN(S(=O)(=O)c4cccc(-c5cnn(CC6CC6)c5)c4)CC3)C2)c1 (stereo partly drawn) [Compound 82, 3-((2S)-3-(8-(3-(1-(cyclopropylmethyl)-1H-pyrazol-4-yl)phenylsulfonyl)-1-oxa-8-azaspiro[4.5]decan-3-ylamino)-2-hydroxypropoxy)-N-methylbenzenesulfonamide]	15.9
CC(C)NS(=O)(=O)c1cccc(OC[C@@H](O)CNC2COC3(CCN(S(=O)(=O)c4ccc5ccccc5c4)CC3)C2)c1 (stereo partly drawn) [Compound 6, 3-((2S)-2-hydroxy-3-(8-(naphthalen-2-ylsulfonyl)-1-oxa-8-azaspiro[4.5]decan-3-ylamino)propoxy)-N-isopropylbenzenesulfonamide]	24.3
CNS(=O)(=O)c1cccc(OC[C@@H](O)CNC2COC3(CCN(S(=O)(=O)c4cccc(-c5ccco5)c4)CC3)C2)c1 (stereo partly drawn) [Compound 78, 3-((2S)-3-(8-(3-(furan-2-yl)phenylsulfonyl)-1-oxa-8-azaspiro[4.5]decan-3-ylamino)-2-hydroxypropoxy)-N-methylbenzenesulfonamide]	20.7
CNS(=O)(=O)c1cccc(OC[C@@H](O)CNC2COC3(CCN(S(=O)(=O)c4cncc(Br)c4)CC3)C2)c1 (stereo partly drawn) [Compound 337, 3-((2S)-3-(8-(5-bromopyridin-3-ylsulfonyl)-1-oxa-8-azaspiro[4.5]decan-3-ylamino)-2-hydroxypropoxy)-N-methylbenzenesulfonamide]	18.6
CNS(=O)(=O)c1cccc(OC[C@@H](O)CN[C@@H]2COC3(CCN(S(=O)(=O)c4cccc(-c5ccc(CNC(C)C)cc5)c4)CC3)C2)c1 [Compound 359, 3-((S)-2-hydroxy-3-((S)-8-(4′-((isopropylamino)methyl)biphenyl-3-ylsulfonyl)-1-oxa-8-azaspiro[4.5]decan-3-ylamino)propoxy)-N-methylbenzenesulfonamide]	17.9
CNS(=O)(=O)c1cccc(OC[C@@H](O)CNC2COC3(CCN(S(=O)(=O)c4ccc(CN)cc4)CC3)C2)c1 (stereo partly drawn) [Compound 391, 3-((2S)-3-(8-(4-(aminomethyl)phenylsulfonyl)-1-oxa-8-azaspiro[4.5]decan-3-ylamino)-2-hydroxypropoxy)-N-methylbenzenesulfonamide]	446
CCCCCNS(=O)(=O)c1cccc(OC[C@@H](O)CNC2COC3(CCN(S(=O)(=O)c4ccc5ccccc5c4)CC3)C2)c1 (stereo partly drawn) [Compound 3, 3-((2S)-2-hydroxy-3-(8-(naphthalen-2-ylsulfonyl)-1-oxa-8-azaspiro[4.5]decan-3-ylamino)propoxy)-N-pentylbenzenesulfonamide]	133
CNS(=O)(=O)c1cccc(OC[C@@H](O)CNC2COC3(CCN(S(=O)(=O)c4cccc(-c5cncnc5)c4)CC3)C2)c1 (stereo partly drawn) [Compound 104, 3-((2S)-2-hydroxy-3-(8-(3-(pyrimidin-5-yl)phenylsulfonyl)-1-oxa-8-azaspiro[4.5]decan-3-ylamino)propoxy)-N-methylbenzenesulfonamide]	17.3
CNS(=O)(=O)c1cccc(OC[C@@H](O)CNC2COC3(CCN(S(=O)(=O)c4cccc(-c5ccc(C)nc5)c4)CC3)C2)c1 (stereo partly drawn) [Compound 111, 3-((2S)-2-hydroxy-3-(8-(3-(6-methylpyridin-3-yl)phenylsulfonyl)-1-oxa-8-azaspiro[4.5]decan-3-ylamino)propoxy)-N-methylbenzenesulfonamide]	26.3
CNS(=O)(=O)c1cccc(OC[C@@H](O)CNC2COC3(CCN(S(=O)(=O)c4ccc(OC)nc4)CC3)C2)c1 (stereo partly drawn) [Compound 396, 3-((2S)-2-hydroxy-3-(8-(6-methoxypyridin-3-ylsulfonyl)-1-oxa-8-azaspiro[4.5]decan-3-ylamino)propoxy)-N-methylbenzenesulfonamide]	30.3
CNS(=O)(=O)c1cccc(OC[C@@H](O)CN[C@H]2COC3(CCN(S(=O)(=O)c4cccc(-c5ccc(OCC#N)cc5)c4)CC3)C2)c1 [Compound 298, 3-((S)-3-((R)-8-(4′-(cyanomethoxy)biphenyl-3-ylsulfonyl)-1-oxa-8-azaspiro[4.5]decan-3-ylamino)-2-hydroxypropoxy)-N-methylbenzenesulfonamide]	26
CC(C)(C)NS(=O)(=O)c1cccc(OC[C@@H](O)CNC2COC3(CCN(S(=O)(=O)c4ccc5ccccc5c4)CC3)C2)c1 (stereo partly drawn) [Compound 94, N-tert-butyl-3-((2S)-2-hydroxy-3-(8-(naphthalen-2-ylsulfonyl)-1-oxa-8-azaspiro[4.5]decan-3-ylamino)propoxy)benzenesulfonamide]	59.8
CNS(=O)(=O)c1cccc(OC[C@@H](O)CNC2COC3(CCN(S(=O)(=O)c4cccc(-c5cnn(C)c5)c4)CC3)C2)c1 (stereo partly drawn) [Compound 61, 3-((2S)-2-hydroxy-3-(8-(3-(1-methyl-1H-pyrazol-4-yl)phenylsulfonyl)-1-oxa-8-azaspiro[4.5]decan-3-ylamino)propoxy)-N-methylbenzenesulfonamide]	13.5

Next, values leading:

IC50 [nM]	Structure (SMILES)
11.6	CNS(=O)(=O)c1cccc(OC[C@@H](O)CNC2COC3(CCN(S(=O)(=O)c4ccc5cc(OC)ccc5c4)CC3)C2)c1 (stereo partly drawn) [Compound 169, 3-((2S)-2-hydroxy-3-(8-(6-methoxynaphthalen-2-ylsulfonyl)-1-oxa-8-azaspiro[4.5]decan-3-ylamino)propoxy)-N-methylbenzenesulfonamide]
83.9	CCn1cc(S(=O)(=O)N2CCC3(CC2)C[C@@H](NC[C@H](O)COc2cccc(S(N)(=O)=O)c2)CO3)c(=O)c2ccc(C)cc21 [Compound 557, 3-((S)-3-((R)-8-(1-ethyl-7-methyl-4-oxo-1,4-dihydroquinolin-3-ylsulfonyl)-1-oxa-8-azaspiro[4.5]decan-3-ylamino)-2-hydroxypropoxy)benzenesulfonamide]
239	CNS(=O)(=O)c1cccc(OC[C@@H](O)CNC2COC3(CCN(S(=O)(=O)c4cccc(-c5cccc(C(=O)O)c5)c4)CC3)C2)c1 (stereo partly drawn) [Compound 112, 3′-(3-((S)-2-hydroxy-3-(3-(N-methylsulfamoyl)phenoxy)propylamino)-1-oxa-8-azaspiro[4.5]decan-8-ylsulfonyl)biphenyl-3-carboxylic acid]
63.5	CNS(=O)(=O)c1cccc(OC[C@@H](O)CNC2COC3(CCN(S(=O)(=O)c4cccc(-c5ccc(CNCCN(C)C)cc5)c4)CC3)C2)c1 (stereo partly drawn) [Compound 305, 3-((2S)-3-(8-(4′-((2-(dimethylamino)ethylamino)methyl)biphenyl-3-ylsulfonyl)-1-oxa-8-azaspiro[4.5]decan-3-ylamino)-2-hydroxypropoxy)-N-methylbenzenesulfonamide]
80.9	CNS(=O)(=O)c1cccc(OC[C@@H](O)CNC2COC3(CCN(S(=O)(=O)c4ccc(-c5cc(C(F)(F)F)nn5C)s4)CC3)C2)c1 (stereo partly drawn) [Compound 191, 3-((2S)-2-hydroxy-3-(8-(5-(1-methyl-3-(trifluoromethyl)-1H-pyrazol-5-yl)thiophen-2-ylsulfonyl)-1-oxa-8-azaspiro[4.5]decan-3-ylamino)propoxy)-N-methylbenzenesulfonamide]
24.2	CN(C)S(=O)(=O)c1cccc(OC[C@@H](O)CNC2COC3(CCN(S(=O)(=O)c4ccc5c(c4)NC(=O)CO5)CC3)C2)c1 (stereo partly drawn) [Compound 250, 3-((2S)-2-hydroxy-3-(8-(3-oxo-3,4-dihydro-2H-benzo[b][1,4]oxazin-6-ylsulfonyl)-1-oxa-8-azaspiro[4.5]decan-3-ylamino)propoxy)-N,N-dimethylbenzenesulfonamide]
74.9	CCc1nc2cc(S(=O)(=O)N3CCC4(CC3)C[C@@H](NC[C@H](O)COc3cccc(S(=O)(=O)NC)c3)CO4)cnc2[nH]1 [Compound 515, 3-((S)-3-((R)-8-(2-ethyl-3H-imidazo[4,5-b]pyridin-6-ylsulfonyl)-1-oxa-8-azaspiro[4.5]decan-3-ylamino)-2-hydroxypropoxy)-N-methylbenzenesulfonamide]
22.2	CNS(=O)(=O)c1cccc(OC[C@@H](O)CN[C@H]2COC3(CCN(S(=O)(=O)c4cnc5[nH]c(=O)n(C)c5c4)CC3)C2)c1 [Compound 522, 3-((S)-2-hydroxy-3-((R)-8-(1-methyl-2-oxo-2,3-dihydro-1H-imidazo[4,5-b]pyridin-6-ylsulfonyl)-1-oxa-8-azaspiro[4.5]decan-3-ylamino)propoxy)-N-methylbenzenesulfonamide]

— patent publication US11987588B2, “Modulators of the beta-3 adrenergic receptor useful for the treatment or prevention of heart failure and disorders related thereto” (Arena Pharmaceuticals, Inc., priority 2017, dated 2024)
